Experimental data from US20090105237A1, “Cooling compounds” (priority 2005, published 2009).

Columns and labels:
Type in all cases: in vivo
panelists = assay: Panel tasting of solutions of cooling compounds: concentration with cooling intensity similar or slightly higher than menthol at 2 ppm; settings: solution with cooling intensity similar or slightly higher than a solution of menthol at 2 ppm; small group of panelists
mouth [1] = assay: Application in toothpaste: panelist's teeth brushed with toothgel, mouth rinsed with water
Excerpt: The chemicals are mixed in the toothgel, a piece of toothgel was put on a toothbrush and a panelist's teeth were brushed. The mouth was rinsed with water and the water was spit out. […] The cooling perception lasted for several hours.

mouth [2] = assay: Application in chewing gum: gum stick chewed by a panelist for 15 minutes and spit out
Description: All the ingredients are mixed in the prewarmed gum base. The mixture is spread in thick films, cooled down and cut in sticks. A gum stick is chewed by a panelist for 15 minutes and spit out. […] When spit out, the cooling sensation becomes intense and lasts for several hours

Row | Compound | Concentration (panelists) [ppm] | further results
1 | CC1CCC(C(C)C)C(C(=O)Nc2cccc(C(N)=O)c2)C1 (stereo not drawn) [Example 2, N-(3-carboxamidophenyl) p-menthanecarboxamide] | 0.2 | 
2 | COCCNC(=O)c1ccc(NC(=O)C2CC(C)CCC2C(C)C)cc1 (stereo not drawn) [Example 4, 4-[p-menthanecarbonyl-amino]-N-(2-methoxy-ethyl)-benzamide] | 0.25 | 
3 | CC1CCC(C(C)C)C(C(=O)Nc2ccccc2C(N)=O)C1 (stereo not drawn) [Example 3, N-(2-carboxamidophenyl) p-menthanecarboxamide] | 0.5 | cooling sensation after brushing (mouth [1]; 0.500 g of a 5% gel in peppermint oil in 99.500 g opaque toothgel, after rinsing, all areas of the mouth): intense cooling sensation; duration of cooling perception (mouth [1]; toothgel, after brushing and rinsing): several hours
4 | CC1CCC(C(C)C)C(C(=O)Nc2ccc(C(=O)N3CCN(C)CC3)cc2)C1 (stereo not drawn) [Example 5, N-(4-(4-methylpiperazine-1-carbonyl)phenyl) p-menthanecarboxamide] | 0.4 | 
5 | CC1CCC(C(C)C)C(O)C1 (stereo not drawn) [Example 1-Menthol, 1-Menthol, reference compound] | 2.0 | 
6 | CC1CCC(C(C)C)C(C(=O)Nc2ccc(C(N)=O)cc2)C1 (stereo not drawn) [Example 1, N-(4-carboxamidophenyl) p-menthanecarboxamide] | 0.15 | cooling sensation when spit out (mouth [2]; chewing gum with 0.100 g compound per about 100 g, with peppermint oil, after 15 minutes of chewing): intense; cooling sensation when chewed (mouth [2]; chewing gum with 0.100 g compound per about 100 g, with peppermint oil, chewed 15 minutes, all areas of the mouth): agreeable cooling sensation; duration of cooling sensation (mouth [2]; chewing gum, after it is spit out): several hours
7 | CCNC(=O)C1CC(C)CCC1C(C)C (stereo not drawn) [N-ethyl p-menthanecarboxamide (WS-3), N-ethyl p-menthanecarboxamide, reference compound] | 1.5 | 
